These results are taken from BindingDB's records for doi:10.1016/j.bioorg.2017.04.005 (Shenyang Pharmaceutical University, 2017).

The experiment deals with T1, Histone-lysine N-methyltransferase EHMT2 (Homo sapiens, UniProt Q96KQ7).
T1 sequence (Q96KQ7 whole entry): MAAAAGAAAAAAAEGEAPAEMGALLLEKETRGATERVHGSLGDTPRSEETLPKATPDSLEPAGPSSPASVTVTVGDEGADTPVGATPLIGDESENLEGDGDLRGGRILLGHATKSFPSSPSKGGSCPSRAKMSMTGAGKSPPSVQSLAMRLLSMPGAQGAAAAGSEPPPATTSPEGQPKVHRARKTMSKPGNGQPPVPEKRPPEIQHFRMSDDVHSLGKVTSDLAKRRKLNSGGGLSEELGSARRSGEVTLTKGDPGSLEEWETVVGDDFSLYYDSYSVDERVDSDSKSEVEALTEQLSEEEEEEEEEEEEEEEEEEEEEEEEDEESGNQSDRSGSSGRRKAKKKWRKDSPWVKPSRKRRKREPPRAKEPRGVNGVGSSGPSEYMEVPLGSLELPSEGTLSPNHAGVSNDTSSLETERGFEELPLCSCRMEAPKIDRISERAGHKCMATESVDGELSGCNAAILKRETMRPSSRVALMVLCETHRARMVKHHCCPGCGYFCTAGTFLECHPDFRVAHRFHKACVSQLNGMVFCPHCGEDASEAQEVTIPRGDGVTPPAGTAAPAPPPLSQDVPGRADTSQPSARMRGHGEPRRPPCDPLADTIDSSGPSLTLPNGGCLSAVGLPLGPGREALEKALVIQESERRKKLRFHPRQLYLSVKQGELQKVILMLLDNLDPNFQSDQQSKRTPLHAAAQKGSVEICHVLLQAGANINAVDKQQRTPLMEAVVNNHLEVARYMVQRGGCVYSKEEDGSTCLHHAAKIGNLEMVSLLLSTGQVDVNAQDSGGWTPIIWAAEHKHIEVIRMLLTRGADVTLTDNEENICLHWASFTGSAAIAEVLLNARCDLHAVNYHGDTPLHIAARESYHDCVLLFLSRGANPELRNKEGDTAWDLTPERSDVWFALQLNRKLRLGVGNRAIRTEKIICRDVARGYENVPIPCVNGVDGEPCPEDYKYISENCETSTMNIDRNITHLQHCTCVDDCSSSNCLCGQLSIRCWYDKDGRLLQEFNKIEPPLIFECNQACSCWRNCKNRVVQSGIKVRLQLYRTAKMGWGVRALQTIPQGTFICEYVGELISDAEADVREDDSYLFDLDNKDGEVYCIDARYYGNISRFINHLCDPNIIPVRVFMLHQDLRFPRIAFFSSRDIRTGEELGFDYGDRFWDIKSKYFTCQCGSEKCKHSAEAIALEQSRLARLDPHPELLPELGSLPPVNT
The experiment can be described thus: Enzymatic Assay. To be noted: pH 8.5; 25 °C. On the procedure: Biochemical activity of G9a was measured as described [Kubicek et al., Mol. Cell, 25:473-481]. Assays were performed in white, opaque 384-well plates coated with Neutravidin (Pierce Biotechnology). Brd 4770 was used as a positive control. Test compounds were diluted to 12 μg/ml in Baffer A (50 mM Tris-HCl pH 8.5 containing 4% DMSO) and 10 μl was dispensed into the wells. Blank and control wells received only compound buffer. GST-G9a at 10 μg/ml and SAM at 40 μM were diluted in Buffer B (50 mM Tris HCl pH 8.5/10 mM DTT) and added in a volume of 20 μL. Blank wells received Tris/DTT buffer only. The reactions were initiated by the addition of 800 nM H3 (1-20)-cysbiotin substrate in Buffer C (50 mM Tris pH 8.5) in a volume of 10 μL, and incubated at room temperature for 60 min. The plates were washed 3 times with 100 μL of Wash Buffer (50 mM Tris pH 7.4, 150 mM NaCl, 0.05% Tween 20, 0.2% BSA). Next, 50 μl of Fluoroimmunoassay (FI) Buffer (50 mM Tris HCl pH 7.8, 150 mM NaCl, 0.05% Tween 40, 25 μM DTPA, 0.2% BSA, 0.05% BGG) containing 5 ng α-2X-di-meth H3-K9 and 5 ng goat anti-rabbit Eu chelate (Perkin Elmer Life Sciences) was added to all wells of the plate, and the plate was incubated for an additional hour at room temperature. The plates were washed 3 times with 100 μL of Wash Buffer, and 50 μL of Enhancement Solution (Perkin Elmer Life Sciences) was added to each well. Time resolved fluorescence was measured after 45 min on a Viewlux Microplate Imager (Perkin Elmer Life Sciences) imaging for 15 s with a 354 μs window, 400 μs delay, excitation at 360 nm, and emission at 618 nm.

Where a SMILES comes first, the peptide text is derived from it. [ ]: non-standard residue; d: D form. pY = N[C@@H](Cc1ccc(OP(=O)(O)O)cc1)C(=O)O Some results are limits rather than exact numbers.

As to `O=C(Nc1ccc2c(c1)nc(-c1ccccc1)n2CCCc1ccccc1)c1ccc(-c2ccccc2)cc1` [N-(2-phenyl-1-(3-phenylpropyl)-1H-benzo[d]imidazol-5-yl)-[1,1'-biphenyl]-4-carboxamide (24)], the IC50 (as a rule, the concentration at which inhibition is half-maximal) is 12.2 µM.

In turn, `CC(C)(C)c1ccc(S(=O)(=O)Nc2ccc3c(c2)nc(-c2ccccc2)n3CCCc2ccccc2)cc1` [4-(tert-Butyl)-N-(2-phenyl-1-(3-phenylpropyl)-1H-benzo[d]imidazol-5-yl)benzenesulfonamide (20)] returned an IC50 of 16.3 µM.

Take `O=S(=O)(Nc1ccc2c(c1)nc(-c1ccccc1)n2CCCc1ccccc1)c1ccc(OC(F)(F)F)cc1` [N-(2-phenyl-1-(3-phenylpropyl)-1H-benzo[d]imidazol-5-yl)-4-(trifluoromethoxy)benzenesulfonamide (16)]: it took 21.9 µM to reach half-maximal inhibition (IC50). The IC50 values of the last two molecules are within 1.5-fold of each other.

On to `N#Cc1ccc(S(=O)(=O)Nc2ccc3c(c2)nc(-c2ccccc2)n3CCCc2ccccc2)cc1` [4-Cyano-N-(2-phenyl-1-(3-phenylpropyl)-1H-benzo[d]imidazol-5-yl)benzenesulfonamide (18)], for which the IC50 was 18.8 µM.

In the case of `COC(=O)c1ccc2c(c1)nc(NC(=O)c1ccccc1)n2CCCc1ccccc1` [Brd4470], the IC50 is 6.1 µM. Compared with the last molecule, the IC50 is about 3.1-fold lower.

The molecule `COc1ccccc1C(=O)Nc1ccc2nc(-c3ccccc3)oc2c1` [2-Methoxy-N-(2-phenylbenzo[d]oxazol-6-yl)benzamide (10)] yielded an IC50 of 12.8 µM.

On to `O=S(=O)(Nc1ccc2c(c1)nc(-c1ccccc1)n2CCCc1ccccc1)c1ccc(C(F)(F)F)cc1` [N-(2-phenyl-1-(3-phenylpropyl)-1H-benzo[d]imidazol-5-yl)-4-(trifluoromethyl)benzenesulfonamide (15)], for which the IC50 came to 16 µM. The IC50 values of the last two molecules are within 1.5-fold of each other.

For `N#Cc1ccc(S(=O)(=O)Nc2ccc3nc(-c4ccccc4)oc3c2)cc1` [4-Cyano-N-(2-phenylbenzo[d]oxazol-6-yl)benzenesulfonamide (7)], the IC50 stood at 30.4 µM.

In turn, `O=S(=O)(Nc1ccc2nc(-c3ccccc3)oc2c1)c1ccccc1Br` [2-Bromo-N-(2-phenylbenzo[d]oxazol-6-yl)benzenesulfonamide (8)] registered an IC50 of more than 40 µM.

In turn, `O=S(=O)(Nc1ccc2c(c1)nc(-c1ccccc1)n2CCCc1ccccc1)c1ccccc1Br` [2-Bromo-N-(2-phenyl-1-(3-phenylpropyl)-1H-benzo[d]imidazol-5-yl)benzenesulfonamide (19)] registered an IC50 of 20.8 µM. In other words, the double-digit micromolar range.

Consider `O=S(=O)(Nc1ccc2c(c1)nc(-c1ccccc1)n2CCCc1ccccc1)c1ccc(F)cc1` [4-Fluoro-N-(2-phenyl-1-(3-phenylpropyl)-1H-benzo[d]imidazol-5-yl)benzenesulfonamide (17)], for which the IC50 stood at 16.1 µM.

`O=C(Nc1ccc2c(c1)nc(-c1ccccc1)n2CCCc1ccccc1)c1cccc(Br)c1` [3-Bromo-N-(2-phenyl-1-(3-phenylpropyl)-1H-benzo[d]imidazol-5-yl)benzamide (22)] returned an IC50 of 1.32 µM.

On to `COc1ccccc1C(=O)Nc1ccc2c(c1)nc(-c1ccccc1)n2CCCc1ccccc1` [2-Methoxy-N-(2-phenyl-1-(3-phenylpropyl)-1H-benzo[d]imidazol-5-yl)benzamide (23)], for which the IC50 amounted to 1.75 µM.

With `CC(C)[C@H](NC(=O)[C@@H](N)CCC(=O)O)C(=O)N[C@@H](CO)C(=O)N[C@@H](Cc1ccccc1)C(=O)N[C@@H](Cc1ccc(OP(=O)(O)O)cc1)C(=O)N[C@@H](Cc1ccc(O)cc1)C(=O)N[C@@H](CO)C(=O)N[C@@H](CCC(=O)O)C(=O)N[C@@H](CCC(=O)O)C(=O)N[C@@H](CC(N)=O)C(=O)N[C@@H](CCCCN)C(=O)O` [IGF1R-pep] (H-EVSF[pY]YSEENK-OH), the IC50 is 19 µM. This IC50 is about 11-fold higher than that of the molecule before.

Consider `O=C(Nc1ccc2nc(-c3ccccc3)oc2c1)c1cccc(Br)c1` [3-Bromo-N-(2-phenylbenzo[d]oxazol-6-yl)benzamide (12)], for which 15.3 µM corresponded to half-maximal inhibition (IC50).

Molecule `COc1ccccc1S(=O)(=O)Nc1ccc2c(c1)nc(-c1ccccc1)n2CCCc1ccccc1` [2-Methoxy-N-(2-phenyl-1-(3-phenylpropyl)-1H-benzo[d]imidazol-5-yl)benzenesulfonamide (14)] gave an IC50 of 2.63 µM.

`CC(C)C[C@H](NC(=O)[C@H](CC(N)=O)NC(=O)[C@@H](N)CC(=O)O)C(=O)N[C@@H](Cc1ccc(O)cc1)C(=O)N[C@@H](Cc1ccc(OP(=O)(O)O)cc1)C(=O)N[C@@H](Cc1c[nH]c2ccccc12)C(=O)N[C@@H](CC(=O)O)C(=O)N[C@@H](CCC(N)=O)C(=O)N[C@@H](CC(=O)O)C(=O)N1CCC[C@H]1C(=O)N1CCC[C@H]1C(=O)O` [ErbB2-pep] (H-DNLY[pY]WDQDPP-OH) showed an IC50 of 15.3 µM. This IC50 is about 5.8-fold higher than that of the molecule before.

With `O=C(Nc1ccc2c(c1)nc(-c1ccccc1)n2CCCc1ccccc1)c1ccccc1F` [2-Fluoro-N-(2-phenyl-1-(3-phenylpropyl)-1H-benzo[d]imidazol-5-yl)benzamide (21)], the IC50 turned out to be 9.59 µM. Compared with the last molecule, the IC50 is about 1.6-fold lower.

`CC(C)[C@H](NC(=O)[C@H](CO)NC(=O)[C@H](CO)NC(=O)[C@@H]1CCCN1)C(=O)N[C@@H](Cc1ccc(OP(=O)(O)O)cc1)C(=O)N[C@H](C(=O)N1CCC[C@H]1C(=O)N[C@@H](CC(=O)O)C(=O)N[C@@H](CCC(=O)O)C(=O)N[C@@H](Cc1c[nH]c2ccccc12)C(=O)N[C@@H](CCC(=O)O)C(=O)O)C(C)C` [IR-pep] (H-PSSV[pY]VPDEWE-OH) showed a concentration for half-maximal inhibition (IC50) of 26.2 µM.

`O=[N+]([O-])c1cccc(S(=O)(=O)Nc2ccc3c(c2)nc(-c2ccccc2)n3CCCc2ccccc2)c1` [3-Nitro-N-(2-phenyl-1-(3-phenylpropyl)-1H-benzo[d]imidazol-5-yl)benzenesulfonamide (13)] displayed a concentration for half-maximal inhibition (IC50) of 35.4 µM.

`O=C(Nc1ccc2nc(-c3ccccc3)oc2c1)c1ccccc1F` [2-Fluoro-N-(2-phenylbenzo[d]oxazol-6-yl)benzamide (11)] had an IC50 of more than 40 µM.

`CC(C)(C)c1ccc(S(=O)(=O)Nc2ccc3nc(-c4ccccc4)oc3c2)cc1` [4-(tert-Butyl)-N-(2-phenylbenzo[d]oxazol-6-yl)benzenesulfonamide (9)] displayed an IC50 of 36.3 µM.
